Patent US20220323437A1, “METHODS FOR TREATING PULMONARY ARTERIAL HYPERTENSION” (ACTELION PHARMACEUTICALS LTD, priority 2019, published 2022)
Values joined by “and” are separate entries in the source; they are usually repeats but may differ in a detail not shown here. Equal entries are not always repeated.

Experiment: Adverse events during switch from oral to i.v. selexipag and back in subjects with stable PAH (Phase 3 study)
Type: in vivo, human
Procedure: This was a prospective, multicenter, open-label, single-sequence, cross-over, Phase 3 study. Based on the dose of selexipag received at study entry, subjects were allocated to one of the following groups, selexipag 200-1000 μg b.i.d. or selexipag 1200-1600 μg b.i.d. See, FIG. 1. The study comprised the following periods:
(ii) Treatment and observation period: The treatment and observation period included the following consecutive periods: • Period 1 included oral selexipag pre-treatment period for 1 day, in-hospital. This period started with intake of the morning dose of oral selexipag on Day 1 at Visit 2 and ended the following day, before initiation of the first infusion of i.v. selexipag. • Period 2 included i.v. selexipag treatment period for 36 hours [3 infusions], in-hospital. This period started in the morning of Day 2 at Visit 2 with the start of the first infusion of i.v. selexipag and ended in the evening of Day 3 at Visit 2 before the evening administration of oral selexipag. Administration of oral selexipag was interrupted during the i.v. selexipag treatment period. • Period 3 included oral selexipag post-treatment period for 7 to 11 day. This period started in the evening of Day 3 at Visit 2 with the administration of oral selexipag and ended 7-11 days later, at Visit 3.
The endpoints analyzed for Period 1, Period 2, and Period 3 and follow-up period combined included discontinuations due to prostacyclin-associated AEs, adverse events (AEs) and serious adverse events (SAEs), prostacyclin-associated AEs, AEs related to injection site reactions, and PAH-related AEs.
The endpoints analyzed for (i) Period 1, Period 2, and Period 3 and follow-up period combined (ii) Period 1 and Period 2 combined, and (iii) Period 2 and Period 3 combined included discontinuations due to prostacyclin-associated AEs, discontinuations due to any AEs, AEs and SAEs, prostacyclin-associated AEs, PAH-related AEs, change from baseline in vital signs (systolic blood pressure [SBP], diastolic blood pressure [DBP], and pulse rate) and body weight, ECG abnormalities, marked laboratory abnormalities, and change from baseline in WHO FC.
The statistical analysis was mainly descriptive, without formal hypothesis testing. Exact Pearson-Clopper CIs for the incidence of AEs were computed.

[1] = Overall (Periods 1, 2, and 3, and safety-follow-up combined), 20 subjects
[2] = Overall (Periods 1, 2, and 3 with safety-follow-up combined)
[3] = Period 1 (oral selexipag), total, N = 20
[4] = Period 1 (oral selexipag, 24 h), high dose cohort (1200-1600 μg), N = 12
[5] = Period 1 (oral selexipag, 24 h), high dose cohort (1200-1600 μg), N = 12, listed as Uptravi
[6] = Period 1 (oral selexipag, 24 h), low dose cohort (200-1000 μg), N = 8
[7] = Period 1 (oral selexipag, 24 h), total, N = 20
[8] = Period 2 (i.v. selexipag, 36 h), high dose cohort (1200-1600 μg), N = 12
[9] = Period 2 (i.v. selexipag, 36 h), low dose cohort (200-1000 μg), N = 8
[10] = Period 2 (i.v. selexipag, 36 h), total, N = 20
[11] = Period 2 (intravenous selexipag treatment), high dose cohort (1200-1600 μg), N = 12

## CC(C)N(CCCCOCC(=O)NS(C)(=O)=O)c1cnc(-c2ccccc2)c(-c2ccccc2)n1 [selexipag, 2-{4-[(5,6-diphenylpyrazin-2-yl)(propan-2-yl)amino]butoxy}-N-(methanesulfonyl)acetamide]
[1]
  most frequently reported AE preferred term: headache: 4 subjects
  subjects with at least 1 AE during the study: 15 subjects
[2]
  subjects with mild intensity AEs: 8 subjects
  subjects with moderate intensity AEs: 5 subjects
  subjects with severe intensity AEs: 1 subject
Period 1 (oral selexipag), high dose cohort (1200-1600 μg), N = 12
  Subjects with at least one prostacyclin-associated AE: 0 n (%)
Period 1 (oral selexipag), low dose cohort (200-1000 μg), N = 8
  Subjects with at least one prostacyclin-associated AE: 0 n (%)
[3]
  Deaths: 0 n (%)
  Discontinuations due to prostacyclin-associated AEs: 0 n (%)
  Number of subjects with at least one Prostacyclin-associated AEs: 0 n (%)
  Number of subjects with at least one Serious adverse events (SAEs): 0 n (%)
  SAE incidence: Blindness unilateral: 0 n (%)
  SAE incidence: Rhegmatogenous retinal detachment: 0 n (%)
  SAE incidence: Right ventricular failure: 0 n (%)
[4]
  AE incidence: Sleep disorder: 1 n (%)
  AE incidence: Swelling face: 0 n (%)
  Subjects with at least one AE: 1 n (%)
[5]
  AE incidence: Sleep disorder: 1 (8.3) n (%)
  Subjects with at least one AE: 1 (8.3) n (%)
[6]
  AE incidence: Sleep disorder: 0 n (%)
  AE incidence: Swelling face: 1 (12.5) n (%)
  Subjects with at least one AE: 1 (12.5) n (%)
[7]
  AE incidence: Sleep disorder: 1 n (%)
  AE incidence: Swelling face: 1 n (%)
  Subjects with at least one AE: 2 n (%) and 2 (10.0) n (%)
Period 1 (oral selexipag, 24 h), total, N = 20, listed as Uptravi
  Subjects with at least one AE: 2 n (%)
Period 2 (3 i.v. infusions of selexipag)
  prematurely discontinued study treatment: No subject
Period 2 (i.v. selexipag)
  subjects with clinically significant injection site reactions as determined by the investigator: two
[8]
  AE incidence: Diarrhoea: 1 n (%)
  AE incidence: Dysgeusia: 0 n (%)
  AE incidence: Epistaxis: 0 n (%)
  AE incidence: Flatulence: 1 n (%)
  AE incidence: Flushing: 1 n (%)
  AE incidence: Headache: 3 n (%)
  AE incidence: Incorrect drug administration rate: 0 n (%)
  AE incidence: Infusion site erythema: 2 n (%)
  AE incidence: Infusion site swelling: 1 n (%)
  AE incidence: Lymphadenopathy: 0 n (%)
  AE incidence: Myalgia: 1 n (%)
  AE incidence: Nasal congestion: 1 n (%)
  AE incidence: Nausea: 1 n (%)
  AE incidence: Pain in jaw: 1 n (%)
  AE incidence: Tachycardia: 0 n (%)
  AE incidence: Tension headache: 1 n (%)
  AE incidence: Vascular access complication: 1 n (%)
  AE incidence: Vomiting: 1 n (%)
  Subjects with at least one AE: 6 n (%)
[9]
  AE incidence: Diarrhoea: 0 n (%)
  AE incidence: Dysgeusia: 1 (12.5) n (%)
  AE incidence: Epistaxis: 1 (12.5) n (%)
  AE incidence: Flatulence: 0 n (%)
  AE incidence: Flushing: 0 n (%)
  AE incidence: Headache: 1 (12.5) n (%)
  AE incidence: Incorrect drug administration rate: 1 (12.5) n (%)
  AE incidence: Infusion site erythema: 0 n (%)
  AE incidence: Infusion site swelling: 0 n (%)
  AE incidence: Lymphadenopathy: 1 (12.5) n (%)
  AE incidence: Myalgia: 0 n (%)
  AE incidence: Nasal congestion: 0 n (%)
  AE incidence: Nausea: 0 n (%)
  AE incidence: Pain in jaw: 0 n (%)
  AE incidence: Tachycardia: 1 (12.5) n (%)
  AE incidence: Tension headache: 0 n (%)
  AE incidence: Vascular access complication: 0 n (%)
  AE incidence: Vomiting: 0 n (%)
  Subjects with at least one AE: 4 (50.0) n (%)
[10]
  AE incidence: Diarrhoea: 1 n (%)
  AE incidence: Dysgeusia: 1 n (%)
  AE incidence: Epistaxis: 1 n (%)
  AE incidence: Flatulence: 1 n (%)
  AE incidence: Flushing: 1 n (%)
  AE incidence: Headache: 4 n (%)
  AE incidence: Incorrect drug administration rate: 1 n (%)
  AE incidence: Infusion site erythema: 2 n (%)
  AE incidence: Infusion site swelling: 1 n (%)
  AE incidence: Lymphadenopathy: 1 n (%)
  AE incidence: Myalgia: 1 n (%)
  AE incidence: Nasal congestion: 1 n (%)
  AE incidence: Nausea: 1 n (%)
  AE incidence: Pain in jaw: 1 n (%)
  AE incidence: Tachycardia: 1 n (%)
  AE incidence: Tension headache: 1 n (%)
  AE incidence: Vascular access complication: 1 n (%)
  AE incidence: Vomiting: 1 n (%)
  Subjects with at least one AE: 10 n (%)
[11]
  Prostacyclin-associated AE incidence: Diarrhoea: 1 n (%)
  Prostacyclin-associated AE incidence: Flushing: 1 n (%)
  Prostacyclin-associated AE incidence: Headache: 3 n (%)
  Prostacyclin-associated AE incidence: Myalgia: 1 n (%)
  Prostacyclin-associated AE incidence: Nausea: 1 n (%)
  Prostacyclin-associated AE incidence: Pain in jaw: 1 n (%)
  Prostacyclin-associated AE incidence: Tension headache: 1 n (%)
